This note sets out measurements from ChEMBL document CHEMBL1128996, “Synthesis and preliminary pharmacological evaluation of analogues of caracasanamide, a hypotensive natural product” (1996).

Assay [1] deals with Rattus norvegicus. As to the kind of experiment: Compound was tested for its effect on diastolic blood pressure in anaesthetized rats after i.v. administration at a dose of 4.12 umol/kg. The class given is functional, Artery.
For assay [2], the system named is Rattus norvegicus. As to the kind of experiment: Compound was tested for its effect on systolic blood pressure in anaesthetized rats after i.v. administration at a dose of 4.12 umol/kg. The class given is functional, Artery.
In assay [3] the test system is Rattus norvegicus. As to the kind of experiment: Compound was tested for its effect on heart rate in anaesthetized rats after i.v. administration at a dose of 4.12 umol/kg. The class given is functional.
Assay [4] relates to Rattus norvegicus. As to the kind of experiment: Compound was tested for its effect on respiratory frequency in anaesthetized rats after i.v. administration at a dose of 4.12 umol/kg. The class given is functional.
The species named for assay [5] is Rattus norvegicus. The experiment in a line: Compound was tested for cardiac ionotropism and expressed as dP/dtmax. The class given is functional. The arrangement: concentration or dose not given beside the values.
Assay [6] has as its system Rattus norvegicus. As to the kind of experiment: Compound was tested for its effect on heart rate in anaesthetized rats after i.v. administration at a dose of 4.12 umol/kg. The class given is functional.

Take `CC(C)=CC/N=C(/N)NCCCCNC(=O)/C=C/c1ccccc1.CS(=O)(=O)O`: the results for the Activity in assay [1] and in assay [2] were -59 delta mmHg and -47 delta mmHg, respectively. The HR in assay [3] is 19 delta beats min-1. The compound further came in with an RF in assay [4] of 12 delta beats min-1. In assay [5], this compound showed a dP/dt max of 6070 mmHg s-1.

As to `COc1ccc(CCC(=O)NCCCC/N=C(\N)NCC=C(C)C)cc1OC.CS(=O)(=O)O`, the figures for the Activity in assay [1] and in assay [2] were -14 delta mmHg and -15 delta mmHg, respectively. In assay [3], the HR is given as -12 delta beats min-1. The RF in assay [4] is listed as 6 delta beats min-1. For the same compound, in assay [5], the dP/dt max is reported as 2252 mmHg s-1.

For `COc1ccc(C(=O)NCCCC/N=C(\N)NCC=C(C)C)cc1.CS(=O)(=O)O`, the Activity is given as -35 delta mmHg in assay [1] and -26 delta mmHg in assay [2]. In assay [3], the HR was -16 delta beats min-1. In assay [4], this compound registered an RF of 17 delta beats min-1. Further, the dP/dt max in assay [5] was 3249 mmHg s-1.

Turning to `COc1ccc(CC(=O)NCCCC/N=C(\N)NCC=C(C)C)cc1OC.CS(=O)(=O)O`, the values for the Activity in assay [1] and in assay [2] were -31 delta mmHg and -22 delta mmHg, respectively. In assay [3], the HR was -24 delta beats min-1. For the same compound, the RF in assay [4] is recorded as 16 delta beats min-1. The same compound had a dP/dt max in assay [5] of 3088 mmHg s-1.

Turning to `COc1ccc([C@H]2C[C@@H]2C(=O)NCCCC/N=C(\N)NCC=C(C)C)cc1OC.CS(=O)(=O)O`, the Activity is -26 delta mmHg in assay [1] and -30 delta mmHg in assay [2]. The compound further displayed an HR in assay [3] of -19 delta beats min-1. In addition, the RF in assay [4] is 19 delta beats min-1. The dP/dt max in assay [5] came to 2781 mmHg s-1.

Take `COc1ccc(/C=C/C(=O)NCCCCC/N=C(\N)NCC=C(C)C)cc1OC.CS(=O)(=O)O`: the figures for the Activity in assay [1] and in assay [2] were -40 delta mmHg and -34 delta mmHg, respectively. In assay [6], this compound had an HR of 8 delta beats min-1. The RF in assay [4] was -10 delta beats min-1. In assay [5], this compound yielded a dP/dt max of 5028 mmHg s-1.

In the case of `COc1ccc(C#CC(=O)NCCCC/N=C(\N)NCC=C(C)C)cc1OC.CS(=O)(=O)O`, the Activity in assay [1] was -24 delta mmHg; in assay [2] it was -14 delta mmHg. Further, the HR in assay [3] is given as 14 delta beats min-1. In assay [4], this compound registered an RF of 14 delta beats min-1. Also, the dP/dt max in assay [5] came to 3424 mmHg s-1.

For `COc1ccc(/C=C/C(=O)NCCCC/N=C(\N)NCC=C(C)C)cc1OC.CS(=O)(=O)O`, the Activity in assay [1] was -18 delta mmHg; in assay [2], -21 delta mmHg. Also, the HR in assay [3] is reported as 22 delta beats min-1. The compound further showed an RF in assay [4] of 23 delta beats min-1. In assay [5], this compound gave a dP/dt max of 2996 mmHg s-1.

As to `COc1ccc(/C=C/C(=O)NCCCCCC/N=C(\N)NCC=C(C)C)cc1OC.CS(=O)(=O)O`, the Activity is on record as -8 delta mmHg in assay [1] and -9 delta mmHg in assay [2]. This compound came in with an HR in assay [6] of 4 delta beats min-1. Besides, the RF in assay [4] stood at 4 delta beats min-1. In assay [5], this compound showed a dP/dt max of 648 mmHg s-1.
